Laboratory results: patent US8716326B2, “Isoindolinone derivatives, preparation method thereof and a pharmaceutical composition comprising same” (Korea Research Institute of Chemical Technology, priority 2009, dated 2014)

System: Runx2
Test: Runx2 activity, 6xOSE2-Luc luciferase reporter in transfected C2C12 cells
Type: cell-based, Mouse
Conditions: 24 hrs; for fold induction at 2.5 µM / fold induction at 5 µM / fold induction at 10 µM / fold induction at 20 µM: Mus musculus, read-out: luciferase activity relative to control set as 1
Procedure: Mouse premyoblast cell (C2C12 cell) was transfected using receptor vector 6xOSE2-Luc in order to investigate the activity of the amide compound of the present invention on Runx2.
Specifically, the receptor vector 6xOSE2-Luc was prepared by inserting an artificial promoter linked by six tandem copies of the OSE2 (osteoblast specific element-2) into vector pGL3 (Promega; Madison, Wis., U.S.A.), and then, cloned into the C2C12 cell to be transfected (Kim et al., Journal of Cellular Biochemistry, 91: 1239-1247, 2004). The OSE2 is the binding site of Runx2 in the promoter of osteocalcin which is a bone marker.
C2C12 cells (5,000 cells/well) were plated onto 96-well plates using 10% FBS (fetal bovine serum; Hyclone)-containing DMEM (Dulbecco's Modified Eagle's Medium), the medium was replaced with 5% FBS-containing DMEM after 24 hrs, and treated with each of the amide compounds obtained in Examples 1 to 94 at various concentrations of 2.5 μM, 5.0 μM, 10 μM, and 20 μM. As a control, dimethyl sulfoxide (DMSO) vehicle was applied to the cell in an amount same as that of the amide compound. After 24 hrs, the luciferase activity in the cell lysate was measured by using Dual-Luciferase Reporter Assay System (Promega). The luciferase activity of the amide compound of the present invention was calculated as a value relative to that observed for the control which was set as 1.

SMILES	fold induction at 2.5 µM (2.5 μM)	fold induction at 5 µM (5.0 μM)	fold induction at 10 µM (10 μM)	fold induction at 20 µM (20 μM)	luciferase activity relative to control set as 1 (2.5 μM)	luciferase activity relative to control set as 1 (5.0 μM)	luciferase activity relative to control set as 1 (10 μM)	luciferase activity relative to control set as 1 (20 μM)
Cc1c(C(=O)NCCCCCC(=O)Nc2ccccc2N)cccc1-c1ccccc1 [Example 81, N-(5-(2-aminophenylcarbamoyl)pentyl)-2-methyl-3-phenyl-benzamide]	1.6	3.4	7.5	10.7	–	–	–	–
Nc1ccccc1NC(=O)c1ccc(CN2Cc3c(cccc3-c3cncnc3)C2=O)cc1 [Example 10, N-(2-aminophenyl)-4-((1-oxo-4-(pyrimidin-5-yl)isoindolin-2-yl)methyl)benzamide]	7.9	11.6	14.4	16.7	–	–	–	–
Nc1ccccc1NC(=O)CCCCCN1Cc2c(cccc2-c2ccccc2)C1=O [Example 37, N-(2-aminophenyl)-6-(1-oxo-4-phenylisoindolin-2-yl)hexanamide]	1.6	2.6	6.8	12.5	–	–	–	–
COc1ccc(-c2ccc3c(c2)CN(Cc2ccc(C(=O)Nc4ccccc4N)cc2)C3=O)cc1 [Example 63]	–	–	–	–	8.3 fold	10.3 fold	13.1 fold	14.2 fold
O=C(CCCCCN1Cc2cc(-c3ccc(C(F)(F)F)cc3)ccc2C1=O)NO [Example 55, 6-(5-(4-(trifluoromethyl)phenyl)-1-oxoisoindolin-2-yl)-N-hydroxyhexanamide]	2.7	3.7	5.5	13.3	–	–	–	–
O=C(CCCCCN1Cc2cc(-c3cccnc3)ccc2C1=O)NO [Example 54, N-hydroxy-6-(1-oxo-5-(pyridin-3-yl)isoindolin-2-yl)hexanamide]	1.5	2.9	8.9	19.8	–	–	–	–
Cc1c(C(=O)NCc2ccc(C(=O)Nc3ccccc3N)cc2)cccc1-c1cccnc1 [Example 71, N-(2-aminophenyl)-4-((2-methyl-3-(3-pyridinyl)benzamido)methyl)benzamide]	18.7	34.8	36.5	32.7	–	–	–	–
Cc1c(C(=O)NCCCCCC(=O)NO)cccc1-c1ccccc1 [Example 92, N-(5-(hydroxycarbamoyl)pentyl)-2-methyl-3-phenylbenzamide]	4.1	8.8	12.4	11.5	–	–	–	–
Nc1ccccc1NC(=O)c1ccc(CN2Cc3cc(-c4ccc(C(F)(F)F)cc4)ccc3C2=O)cc1 [Example 59, N-(2-aminophenyl)-4-((5-(4-(trifluoromethyl)phenyl)-1-oxoisoindolin-2-yl)methyl)benzamide]	3.3	4.5	4.1	3.8	–	–	–	–
Nc1ccccc1NC(=O)c1ccc(CN2Cc3c(Br)cccc3C2=O)cc1 [Example 9, N-(2-aminophenyl)-4-((4-bromo-1-oxoisoindolin-2-yl)methyl)benzamide]	12.4	11.3	9.7	9.4	–	–	–	–
CC(C)(C)c1ccc(-c2cccc3c2CN(Cc2ccc(C(=O)Nc4ccccc4N)cc2)C3=O)cc1 [Example 28, 4-((4-(4-tert-butylphenyl)-1-oxoisoindolin-2-yl)methyl)-N-(2-aminophenyl)benzamide]	4.6	7.7	14.3	23.7	–	–	–	–
COc1ccc(-c2cccc3c2CN(Cc2ccc(C(=O)Nc4ccccc4N)cc2)C3=O)cc1OC [Example 16, N-(2-aminophenyl)-4-((4-(3,4-dimethoxyphenyl)-1-oxoisoindolin-2-yl)methyl)benzamide]	12.2	12.3	8.5	9.2	–	–	–	–
